Literature values as cited in patent publication US20230330238A1, “CHIMERIC CONJUGATES FOR DEGRADATION OF VIRAL AND HOST PROTEINS AND METHODS OF USE” (Dana-Farber Cancer Institute, Inc., priority 2020, published 2023).

Conditions: FIG. 8A, identical to FIG. 1C in Bernal F., et al. 2007; cited from earlier work

## LSQETF(R8)DLWKLL(S5)EN [SAH-p53-4]
  α-helical stabilization (helicity by circular dichroism): more stable than SAH-p53-1-3
